Assay results as given in publication PMC11521937, “Expression and characterization of pantothenate energy‐coupling factor transporters as an anti‐infective drug target” (Protein Science : A Publication of the Protein Society, 2024).

What was measured:
[1] = test system: A549 cells; assay: In vitro MTT cytotoxicity assay, A549; assay type: cell-based, human; details: 48 h, 100 µM
Description: (§1) In vitro cytotoxicity evaluation […]
(§2) with minor modifications, which will be detailed below.
(§3) To obtain information regarding the toxicity of our compounds, their impact on the viability of human cells was investigated. HepG2 and A549 cells (2 × 10^4 cells per well) were seeded in 96-well, flat-bottomed culture plates in 100 µL culture medium (DMEM containing 10% fetal calve serum, 1% penicillin-streptomycin). Twenty-four hours after seeding the cells, medium was removed and replaced by medium containing test compounds in a final DMSO concentration of 1%. Compounds were tested in duplicates at a single concentration in 1% DMSO/medium. Epirubicin and doxorubicin were used as positive controls in serial dilutions starting from 10 µM, and rifampicin was used as a negative control (at 100 µM). The living cell mass was determined 48 h after treatment with compounds by adding 0.1 volumes of 3-(4,5-dimethylthiazol-2-yl)-2,5-diphenyltetrazolium bromide (MTT) solution (5 mg/mL sterile PBS) (Sigma, St. Louis, MO) to the wells. After incubating the cells for 30 min at 37 °C (atmosphere containing 5% CO2), medium was removed and MTT crystals were dissolved in 75 µL of a solution containing 10% SDS and 0.5% acetic acid in DMSO. The optical density (OD) of the samples was determined photometrically at 570 nm in a PHERAstar Omega plate reader (BMG labtech, Ortenberg, Germany). To obtain percent viability for each sample, their ODs were related to those of DMSO controls. At least two independent measurements were performed for each compound. The calculation of IC50 was performed using the nonlinear regression function of GraphPad Prism 10 (GraphPad Software, San Diego, CA, USA). […]

[2] = test system: S. pneumoniae DSM‐20566; assay: Galleria mellonella infection model with S. pneumoniae; assay type: in vivo; details: S. pneumoniae OD600 1.5, after 3 days
Description: Next, we examined the antibacterial effect of the ECF inhibitors under in vivo conditions by using G. mellonella larvae. This model was adopted based on the work of Alhayek et al. ([2022]) and serves to assess the efficacy of ECF inhibitors against S. pneumoniae induced infection. Larvae were injected with the overnight culture of S. pneumoniae DSM‐20566, incubated for 3 days at 37°C and 5% CO2 without shaking, and survival rates were monitored daily for 3 days (Figure 4).
G. mellonella larvae were used as an in vivo infection model to test selected ECF inhibitors, following the methodology established by Alhayek et al. ([2022]). S. pneumoniae DSM‐20566 was cultured in Todd–Hewitt medium with 0.1% choline at 37°C with 5% CO2 until an OD600 of 1.5 or higher was reached. Larvae were infected by injecting 10 μL of the culture into the left proleg and incubated at 37°C, 5% CO2 for 72–96 h. Survival was monitored daily. Control groups received either PBS or no injection. […]. The larvae used in this study were purchased from VALOMOLIA Company (Strasbourg, France).

[3] = test system: HepG2 cells; assay: In vitro MTT cytotoxicity assay, HepG2; assay type: cell-based, human; details: 48 h
Description: as §1, §2, §3

For `O=C(O)c1cc(OCc2cccc3ccccc23)ccc1O` [Compound 1], the “Percent (%) cell viability at 100 μM, A549 cells” value [1] was 111 ± 6%.

For `O=C(O)c1cc(OCc2ccc(Br)c3ccccc23)ccc1O` [Compound 2], the “Percent (%) cell viability at 100 μM, A549 cells” value [1] was 124 ± 15%, the larval survival ([2]; compound at 10 μM) was “up to 70%” and the larval survival ([2]; compound at 50 μM) was “up to 70%”.

In the case of `CC(C)(C)OC(=O)Nc1ccc(OCc2cccc3ccccc23)cc1C(=O)O` [Compound 3], the larval survival ([2]; compound at 10 μM) is reported as 60% and the larval survival ([2]; compound at 50 μM) is reported as 50%.

`O=C(O)c1cccc(NCc2ccc(-c3ccc(Cl)cc3)o2)c1` [Compound 4] was tested, and the larval survival ([2]; compound at 10 μM) was 40% and the larval survival ([2]; compound at 50 μM) was 60%.

In the case of `O=C(O)c1cccc(NCc2ccc(-c3cccc(Cl)c3)o2)c1` [Compound 5], the “Percent (%) cell viability at 100 μM, HepG2 cells” value [3] is reported as “non‐toxic”.

For `O=C(O)c1cccc(NCc2ccc(-c3ccccc3Cl)o2)c1` [Compound 6], the “Percent (%) cell viability at 100 μM, HepG2 cells” value [3] was “non‐toxic”.
